Test results from patent US20050222260A1, “(2S)-2-amino-a-{[2-(ethanimidoylamino) ethyl]thio}butanoic acid, a nitric oxide synthase inhibitor, in stabilized pharmaceutical dosage forms” (priority 2003, published 2005).

Legend:
[1] = Compatibility with standard pharmaceutical excipients of solid oral dosage forms; type: physicochemical; conditions: excipients conventionally used for solid oral dosage forms such as tablets; e.g. as compound with phosphoric acid
[2] = compared with the hydrochloride salts exemplified in WO98/30537; cited from earlier work

Row | Structure (SMILES) | compatibility with standard pharmaceutical excipients [1] | hygroscopicity [2]
1 | CC(=N)NCCSCC[C@H](N)C(=O)O [(2S)-2-amino4-{[2-(ethanimidoylamino)ethyl]thio}butanoic acid] | exhibits incompatability with standard pharmaceutical excipients | 
2 | CC(=N)NCCSCC[C@H](N)C(=O)O.O=P(O)(O)O [phosphate salt of (2S)-2-amino4-{[2-(ethanimidoylamino)ethyl]thio}butanoic acid] |  | considerably less hygroscopic
